These results are taken from patent US12116388B2, “Amylin receptor agonists” (Novo Nordisk A/S, priority 2022, dated 2024).

In assay [1] the target is T1, human amylin receptor (hAMYR3) (Homo sapiens, UniProt O60896+P30988).
T1 construct: host or cells: BHK (Baby Hamster Kidney), Hollex-1 cell line further transfected with RAMP3
The assay can be described thus: Human amylin receptor (hAMYR3) in vitro potency assay, CRE-luciferase reporter in BHK cells. The assay is classed as cell-based. As to conditions: BHK hAMYR3/CRE-Luc cells, 3 hours incubation, assay buffer with 1% ovalbumin. The essentials: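 Luminescence from a CRE-driven luciferase reporter reflects cAMP-mediated receptor activation. Peptides were serially diluted (7 concentrations, 7-fold steps, typically starting near 10 nM) in buffer with 1% ovalbumin and applied for 3 h at 37 °C to BHK cells co-expressing calcitonin receptor (a) and RAMP3.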
(In general: In a reporter assay the amount or activity of a reporter protein is the signal.)

Assay [2] addresses T2, human calcitonin receptor (hCTR) (Homo sapiens, UniProt P30988).
T2 construct: host or cells: BHK (Baby Hamster Kidney), Hollex-1 cell line
T2 sequence (P30988 25-474): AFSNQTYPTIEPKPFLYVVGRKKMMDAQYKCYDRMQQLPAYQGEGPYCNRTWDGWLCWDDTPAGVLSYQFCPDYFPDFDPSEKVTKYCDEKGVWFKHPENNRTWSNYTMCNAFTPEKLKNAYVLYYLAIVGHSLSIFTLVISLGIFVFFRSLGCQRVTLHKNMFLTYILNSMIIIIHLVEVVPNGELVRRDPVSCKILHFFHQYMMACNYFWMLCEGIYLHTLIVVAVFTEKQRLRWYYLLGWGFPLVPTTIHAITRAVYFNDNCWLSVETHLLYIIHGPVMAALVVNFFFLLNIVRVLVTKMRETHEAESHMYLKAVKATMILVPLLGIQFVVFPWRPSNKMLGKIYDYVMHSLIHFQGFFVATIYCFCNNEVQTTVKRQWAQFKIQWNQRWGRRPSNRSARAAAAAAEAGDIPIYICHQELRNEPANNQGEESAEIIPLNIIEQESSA
The assay can be described thus: Human calcitonin receptor (hCTR) in vitro potency assay, CRE-luciferase reporter in BHK cells. The assay is classed as cell-based. As to conditions: BHK hCTR/CRE-Luc cells, 3 hours incubation, assay buffer with 1% ovalbumin; read-out: hCalcR potency, EC50. Put shortly:
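Luciferase signal from a CRE reporter served as the cAMP read-out after 3 h, 37 °C exposure to compound. Cells were stably transfected BHK expressing hCTR, and the buffer was phenol-red-free DMEM with 10 mM HEPES and 1% ovalbumin. Compounds were tested as 7-point, 7-fold dilutions, often from about 10 nM.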

pEC50: −log10 of the molar value. Starred links: 1 amine or outer side, 2 acyl side, 3 side chain; linkers in the order of their positions; H or OH if unused. Residues, ends and D or L forms follow the SMILES beside them. Groups on a side chain read outwards from the residue. *: point of attachment. C18 diacid = O=C(O)CCCCCCCCCCCCCCCCC(=O)*; γGlu = O=C(O)[C@H](CCC(=O)[*:2])N[*:1]

T1 sequence (O60896 24-148, one chain of several): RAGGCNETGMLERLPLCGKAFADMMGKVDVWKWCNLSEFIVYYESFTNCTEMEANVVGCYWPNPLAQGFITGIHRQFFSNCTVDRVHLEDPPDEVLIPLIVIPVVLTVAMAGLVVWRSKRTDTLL

As a reminder, the pEC50 is the negative decadic logarithm of the EC50, by convention in mol/L. In the case of `CC[C@H](C)[C@H](NC(=O)[C@@H]1CCCN1C(=O)CNC(=O)[C@H](Cc1ccccc1)NC(=O)[C@H](Cc1c[nH]cn1)NC(=O)[C@H](Cc1c[nH]cn1)NC(=O)[C@H](CC(C)C)NC(=O)[C@H](Cc1ccccc1)NC(=O)[C@H](CCC(=O)O)NC(=O)[C@H](C)NC(=O)[C@H](CC(C)C)NC(=O)[C@H](CCCNC(=N)N)NC(=O)[C@H](CCC(N)=O)NC(=O)[C@@H](NC(=O)[C@H](CCC(N)=O)NC(=O)[C@H](C)NC(=O)[C@@H](NC(=O)[C@H](CO)NC(=O)[C@H](CC(C)C)NC(=O)[C@H](Cc1c[nH]cn1)NC(=O)[C@H](CO)NC(=O)[C@H](C)NC(=O)CC[C@H](NC(=O)CC[C@H](NC(=O)CCCCCCCCCCCCCCCCC(=O)O)C(=O)O)C(=O)O)[C@@H](C)O)[C@@H](C)O)C(=O)N[C@@H](CC(C)C)C(=O)N1CCC[C@H]1C(=O)N1CCC[C@H]1C(=O)N[C@H](C(=O)N[C@@H](CC(=O)O)C(=O)N[C@H](C(=O)NCC(=O)N[C@@H](CO)C(=O)N[C@@H](CCC(=O)O)C(=O)N[C@H](C(=O)N[C@@H](Cc1ccc(O)cc1)C(N)=O)[C@@H](C)O)C(C)C)[C@@H](C)O` [Compound 32, N^1-[(4S)-4-carboxy-4-[[(4S)-4-carboxy-4-(17-carboxyheptadecanoylamino)butanoyl]amino]butanoyl]-[Ala1,Ser2,His3,Leu4,Ser5,Ala7,Gln8,Glu14,His17,Pro25,Pro28,Pro29,Asp31,Glu35],des-(19-22)-human amylin] ({C18 diacid-γGlu-γGlu}-ASHLSTAQTQRLAEFLHHFGPILPPTDVGSETY-NH2), the pEC50 is 11.24 in assay [1] and 10.80 in assay [2].

Consider `CC[C@H](C)[C@H](NC(=O)[C@@H]1CCCN1C(=O)CNC(=O)[C@H](Cc1ccccc1)NC(=O)[C@H](Cc1c[nH]cn1)NC(=O)[C@H](Cc1c[nH]cn1)NC(=O)[C@H](CC(C)C)NC(=O)[C@H](Cc1ccccc1)NC(=O)[C@H](CCC(=O)O)NC(=O)[C@H](C)NC(=O)[C@H](CC(C)C)NC(=O)[C@H](CCCNC(=N)N)NC(=O)[C@H](CCC(N)=O)NC(=O)[C@@H](NC(=O)[C@H](CCC(N)=O)NC(=O)[C@H](CC(C)C)NC(=O)[C@@H](NC(=O)[C@H](CO)NC(=O)[C@H](CC(C)C)NC(=O)[C@H](Cc1c[nH]cn1)NC(=O)[C@H](CO)NC(=O)[C@H](C)NC(=O)CC[C@H](NC(=O)CCCCCCCCCCCCCCCCC(=O)O)C(=O)O)[C@@H](C)O)[C@@H](C)O)C(=O)N[C@@H](CC(C)C)C(=O)N1CCC[C@H]1C(=O)N1CCC[C@H]1C(=O)N[C@H](C(=O)N[C@@H](CC(=O)O)C(=O)N[C@H](C(=O)NCC(=O)N[C@@H](CO)C(=O)N[C@@H](CCC(=O)O)C(=O)N[C@H](C(=O)N1CCC[C@H]1C(N)=O)[C@@H](C)O)C(C)C)[C@@H](C)O` [Compound 35, N^1-[(4S)-4-carboxy-4-(17-carboxyheptadecanoylamino)butanoyl]-[Ala1,Ser2,His3,Leu4,Ser5,Leu7,Gln8,Glu14,His17,Pro25,Pro28,Pro29,Asp31,Glu35,Pro37],des-(19-22)-human amylin] ({C18 diacid-γGlu}-ASHLSTLQTQRLAEFLHHFGPILPPTDVGSETP-NH2), for which the figures for the negative logarithm of the EC50 (pEC50) in assay [1] and in assay [2] were 11.80 and 11.65, respectively.

For the compound `CC[C@H](C)[C@H](NC(=O)[C@H](CCCCNC(=O)CC[C@H](NC(=O)CCCCCCCCCCCCCCCCC(=O)O)C(=O)O)NC(=O)CNC(=O)[C@H](Cc1ccccc1)NC(=O)[C@H](CC(N)=O)NC(=O)[C@H](CC(=O)O)NC(=O)[C@H](CO)NC(=O)[C@H](CO)NC(=O)[C@H](Cc1c[nH]cn1)NC(=O)[C@H](Cc1c[nH]cn1)NC(=O)[C@H](CC(C)C)NC(=O)[C@H](Cc1ccccc1)NC(=O)[C@H](CCC(=O)O)NC(=O)[C@H](C)NC(=O)[C@H](CC(C)C)NC(=O)[C@H](CCCNC(=N)N)NC(=O)[C@H](CCC(N)=O)NC(=O)[C@@H](NC(=O)[C@H](CCC(N)=O)NC(=O)[C@H](C)NC(=O)[C@@H](NC(=O)[C@H](CO)NC(=O)[C@H](CC(C)C)NC(=O)[C@H](CCC(N)=O)NC(=O)[C@H](CO)NC(=O)[C@H](C)NC(C)=O)[C@@H](C)O)[C@@H](C)O)C(=O)N[C@@H](CC(C)C)C(=O)N1CCC[C@H]1C(=O)N1CCC[C@H]1C(=O)N[C@H](C(=O)N[C@@H](CC(=O)O)C(=O)N[C@H](C(=O)NCC(=O)N[C@@H](CO)C(=O)N[C@@H](CC(N)=O)C(=O)N[C@H](C(=O)N1CCC[C@H]1C(N)=O)[C@@H](C)O)C(C)C)[C@@H](C)O` [Compound 18, N^1-acetyl,N{Epsilon-25}-[(4S)-4-carboxy-4-(17-carboxyheptadecanoylamino)butanoyl]-[Ala1,Ser2,Gln3,Leu4,Ser5,Ala7,Gln8,Glu14,His17,Asp21,Lys25,Pro28,Pro29,Asp31,Pro37]-human amylin] (Ac-ASQLSTAQTQRLAEFLHHSSDNFGK([γGlu-C18 diacid])ILPPTDVGSNTP-NH2), the negative-log EC50 (pEC50) in assay [1] is 11.86; in assay [2] it was 11.92.

For the compound `CC[C@H](C)[C@H](NC(=O)[C@@H]1CCCN1C(=O)CNC(=O)[C@H](Cc1ccccc1)NC(=O)[C@H](CC(N)=O)NC(=O)[C@H](CC(=O)O)NC(=O)[C@H](CO)NC(=O)[C@H](CO)NC(=O)[C@H](Cc1c[nH]cn1)NC(=O)[C@H](Cc1c[nH]cn1)NC(=O)[C@H](CC(C)C)NC(=O)[C@H](Cc1ccccc1)NC(=O)[C@H](CCC(=O)O)NC(=O)[C@H](C)NC(=O)[C@H](CC(C)C)NC(=O)[C@H](CCCNC(=N)N)NC(=O)[C@H](CCC(N)=O)NC(=O)[C@@H](NC(=O)[C@H](CCC(N)=O)NC(=O)[C@H](CC(C)C)NC(=O)[C@@H](NC(=O)[C@H](CO)NC(=O)[C@H](CC(C)C)NC(=O)[C@H](Cc1c[nH]cn1)NC(=O)[C@H](CO)NC(=O)[C@H](C)NC(=O)CC[C@H](NC(=O)CCCCCCCCCCCCCCCCC(=O)O)C(=O)O)[C@@H](C)O)[C@@H](C)O)C(=O)N[C@@H](CC(C)C)C(=O)N1CCC[C@H]1C(=O)N1CCC[C@H]1C(=O)N[C@H](C(=O)N[C@@H](CC(=O)O)C(=O)N[C@H](C(=O)NCC(=O)N[C@@H](CO)C(=O)N[C@@H](CC(N)=O)C(=O)N[C@H](C(=O)N1CCC[C@H]1C(N)=O)[C@@H](C)O)C(C)C)[C@@H](C)O` [Compound 34, N^1-[(4S)-4-carboxy-4-(17-carboxyheptadecanoylamino)butanoyl]-[Ala1,Ser2,His3,Leu4,Ser5,Leu7,Gln8,Glu14,His17,Asp21,Pro25,Pro28,Pro29,Asp31,Pro37]-human amylin] ({C18 diacid-γGlu}-ASHLSTLQTQRLAEFLHHSSDNFGPILPPTDVGSNTP-NH2), the pEC50 in assay [1] was 11.72; in assay [2], 11.69.
